Key:
Test in all cases: relative viability (nuclei count vs DMSO), 5 days (fraction); higher = more cells survive
Obatoclax + Tozasertib = compound: COC1=CC(c2cc3ccccc3[nH]2)=N/C1=C\c1[nH]c(C)cc1C [Obatoclax] + Cc1cc(Nc2cc(N3CCN(C)CC3)nc(Sc3ccc(NC(=O)C4CC4)cc3)n2)n[nH]1 [Tozasertib] (partner 0.1 µM)
Procedure, shortened: (§1)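 Relative viability is defined as nuclei in treated wells over nuclei in vehicle wells. Duplicate plates were run and medians reported. Lung cancer cell lines in 1536-well plates were dosed by pin tool one day after seeding, with one drug or with a fixed anchor-drug dose plus five library-drug doses (not always all listed) in √10 steps, and nuclei were counted after 5 days.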

[1] = compound: CC1=CC(=NN1)NC2=CC(=NC(=N2)/C=C/C3=CC=CC=C3)N4CCN(CC4)C + O=C(c1cc(Cc2n[nH]c(=O)c3ccccc23)ccc1F)N1CCN(C(=O)C2CC2)CC1 [Olaparib] (partner 8 µM)
Procedure, shortened: as §1

Bortezomib + Pictilisib = compound: CC(C)C[C@H](NC(=O)[C@H](Cc1ccccc1)NC(=O)c1cnccn1)B(O)O [Bortezomib] + CS(=O)(=O)N1CCN(Cc2cc3nc(-c4cccc5[nH]ncc45)nc(N4CCOCC4)c3s2)CC1 [Pictilisib] (partner 1 µM)
Procedure, shortened: as §1

Bortezomib + Olaparib = compound: CC(C)C[C@H](NC(=O)[C@H](Cc1ccccc1)NC(=O)c1cnccn1)B(O)O [Bortezomib] + O=C(c1cc(Cc2n[nH]c(=O)c3ccccc23)ccc1F)N1CCN(C(=O)C2CC2)CC1 [Olaparib] (partner 8 µM)
Procedure, shortened: as §1

Cell Line | relative viability (Obatoclax + Tozasertib; first compound 0.01 µM) | relative viability (Obatoclax + Tozasertib; first compound 0.03162 µM) | relative viability (Obatoclax + Tozasertib; first compound 0.1 µM) | relative viability (Obatoclax + Tozasertib; first compound 0.3162 µM) | relative viability (Obatoclax + Tozasertib; first compound 1 µM) | relative viability ([1]; first compound 0.08 µM) | relative viability ([1]; first compound 0.253 µM) | relative viability ([1]; first compound 0.8 µM) | relative viability ([1]; first compound 2.53 µM) | relative viability ([1]; first compound 8 µM) | relative viability (Bortezomib + Pictilisib; first compound 0.0002 µM) | relative viability (Bortezomib + Pictilisib; first compound 0.000632 µM) | relative viability (Bortezomib + Pictilisib; first compound 0.002 µM) | relative viability (Bortezomib + Pictilisib; first compound 0.006325 µM) | relative viability (Bortezomib + Pictilisib; first compound 0.02 µM) | relative viability (Bortezomib + Olaparib; first compound 0.0002 µM) | relative viability (Bortezomib + Olaparib; first compound 0.000632 µM) | relative viability (Bortezomib + Olaparib; first compound 0.002 µM) | relative viability (Bortezomib + Olaparib; first compound 0.006325 µM) | relative viability (Bortezomib + Olaparib; first compound 0.02 µM)
NCI-H727 | 0.581 | 0.58 | 0.755 | 0.509 | 0.707 | 0.708 | 0.635 | 0.791 | 0.722 | 0.44 | 0.34 | 0.345 | 0.329 | 0.192 | 0.106 | 0.673 | 0.968 | 0.681 | 0.803 | 0.176
NCI-H1944 | 0.258 | 0.254 | 0.287 | 0.263 | 0.24 | 0.416 | 0.406 | 0.467 | 0.29 | 0.207 | 0.34 | 0.314 | 0.349 | 0.319 | 0.276 | 0.419 | 0.392 | 0.414 | 0.331 | 0.142
NCI-H1437 | 0.414 | 0.439 | 0.437 | 0.457 | 0.521 | 0.603 | 0.664 | 0.631 | 0.416 | 0.138 | 0.41 | 0.512 | 0.434 | 0.0867 | 0.0795 | 0.586 | 0.627 | 0.553 | 0.199 | 0.154
NCI-H441 | 0.497 | 0.677 | 0.666 | 0.52 | 0.385 | 0.569 | 0.55 | 0.503 | 0.401 | 0.116 | 0.483 | 0.315 | 0.35 | 0.0918 | 0.102 | 0.446 | 0.601 | 0.165 | 0.11 | 0.102
EMC-BAC-2 | 0.279 | 0.294 | 0.25 | 0.289 | 0.263 | 0.465 | 0.521 | 0.445 | 0.341 | 0.197 | 0.523 | 0.504 | 0.544 | 0.476 | 0.158 | 0.469 | 0.486 | 0.487 | 0.258 | 0.185
NCI-H647 | 0.254 | 0.304 | 0.301 | 0.222 | 0.112 | 0.524 | 0.521 | 0.493 | 0.0425 | 0.0194 | 0.331 | 0.287 | 0.364 | 0.0521 | 0.0347 | 0.518 | 0.374 | 0.148 | 0.0277 | 0.0271
NCI-H1792 |  |  |  |  |  | 0.437 | 0.501 | 0.431 | 0.374 | 0.031 | 0.29 | 0.21 | 0.192 | 0.306 | 0.175 | 0.415 | 0.313 | 0.531 | 0.062 | 0.046
EBC-1 |  |  |  |  |  | 0.631 | 0.753 | 0.7 | 0.46 | 0.114 | 0.415 | 0.408 | 0.177 | 0.0912 | 0.0987 | 0.756 | 0.67 | 0.229 | 0.0791 | 0.064
A549 |  |  |  |  |  | 0.292 | 0.529 | 0.287 | 0.156 | 0.0245 | 0.507 | 0.531 | 0.468 | 0.049 | 0.0452 | 0.355 | 0.401 | 0.49 | 0.291 | 0.189
NCI-H1563 |  |  |  |  |  |  |  |  |  |  | 0.68 | 0.622 | 0.655 | 0.538 | 0.486 |  |  |  |  | 
IA-LM |  |  |  |  |  | 0.839 | 0.899 | 0.981 | 1.02 | 0.174 | 0.299 | 0.321 | 0.278 | 0.0319 | 0.0054 | 0.765 | 0.824 | 0.791 | 0.0665 | 0.0149
Calu-6 |  |  |  |  |  | 0.577 | 0.558 | 0.469 | 0.289 | 0.0899 | 0.829 | 0.925 | 0.726 | 0.102 | 0.0777 | 0.509 | 0.524 | 0.529 | 0.0855 | 0.0795
NCI-H1648 | 0.515 | 0.499 | 1.01 | 0.465 | 0.361 | 0.979 | 0.797 | 0.813 | 0.747 | 0.361 |  |  |  |  |  | 0.721 | 0.822 | 0.799 | 0.238 | 0.267
NCI-H1623 | 0.428 | 0.422 | 0.426 | 0.451 | 0.38 |  |  |  |  |  |  |  |  |  |  |  |  |  |  | 
NCI-H1299 |  |  |  |  |  | 0.961 | 0.924 | 0.975 | 0.616 | 0.167 | 0.722 | 0.776 | 0.511 | 0.0727 | 0.0315 | 0.98 | 0.917 | 1.03 | 0.239 | 0.103
NCI-H522 | 0.656 | 0.429 | 0.605 | 0.545 | 0.539 | 0.64 | 0.647 | 0.61 | 0.472 | 0.319 |  |  |  |  |  | 0.62 | 0.618 | 0.744 | 0.347 | 0.313
NCI-H2342 | 0.516 | 0.594 | 0.656 | 0.587 | 0.633 | 0.411 | 0.419 | 0.417 | 0.412 | 0.268 |  |  |  |  |  | 0.514 | 0.503 | 0.382 | 0.473 | 0.273
SW 900 | 0.67 | 0.571 | 0.499 | 0.33 | 0.281 | 0.863 | 0.89 | 0.805 | 0.298 | 0.107 |  |  |  |  |  | 0.855 | 0.63 | 0.213 | 0.148 | 0.173
NCI-H1703 |  |  |  |  |  | 0.355 | 0.392 | 0.167 | 0.168 | 0.0731 | 0.259 | 0.208 | 0.146 | 0.128 | 0.121 | 0.417 | 0.318 | 0.123 | 0.0785 | 0.0739

Reference: the supplement of paper PMC10307832
